According to ChEMBL document CHEMBL3286207, “Development of a new class of proteasome inhibitors with an epoxyketone warhead: Rational hybridization of non-peptidic belactosin derivatives and peptide epoxyketones” (Bioorg Med Chem, 2014):

How the values were obtained:
HCT-116 = assay: Cytotoxicity against human HCT116 cells assessed as growth inhibition after 72 hrs by CCK-8 assay; format: functional, cell-based; conditions: HCT-116, 72 h
26S proteasome = assay: Inhibition of chymotrypsin-like of human 20S proteasome using chromophoric Suc-LLVY-AMC as substrate after 60 mins by fluorescence assay; format: protein-complex assay

Question: Which IC50 (HCT-116) does the source give for `CC[C@H](C)[C@@H]1C(=O)O[C@H]1C(=O)NCCC(COCc1ccccc1)COCc1ccccc1` here?
Answer: > 10000 nM

Question: `CC(=O)N[C@@H](CC(=O)NCCC(COCc1ccccc1)COCc1ccccc1)C(=O)N[C@@H](CC(C)C)C(=O)[C@@]1(C)CO1` was tested. Which IC50 (HCT-116) did it give?
Answer: 1900 nM

Question: What about the IC50 (26S proteasome) of the same molecule?
Answer: 2300 nM

Question: How did the IC50 (HCT-116) turn out when `CC(=O)N[C@@H](CC(=O)NCCCCOCc1ccccc1)C(=O)N[C@@H](CC(C)C)C(=O)[C@@]1(C)CO1` was run?
Answer: 2900 nM

Question: And the IC50 (26S proteasome)?
Answer: 5700 nM
